# Measurements: PMC5893132, “Selective inhibition of histamine-evoked Ca^2+ signals by compartmentalized cAMP in human bronchial airway smooth muscle cells” (Cell Calcium, 2018)
# Structures can show the parent of a compound that is named as a salt.
# Experiments:
# Format in all cases: cell-based, human
# [1] = system: intracellular cAMP in hBASMCs; test: Intracellular cAMP in hBASMCs by [3H]-adenine labeling; settings: isoproterenol 10 μM, sustained incubation; [3H]-adenine labeling
# Protocol: hBASMCs in 24-well plates (50,000 cells per well) were grown to confluence. The medium was then replaced with serum-free SMGM-2, and after 24 h this was supplemented with [^3H]-adenine (1 μCi per well, 18.4 Ci·mmol^−1). After 2 h at 37 °C in humidified air with 5% CO2, the medium was removed, and the cells were washed twice with HBS. The cells were stimulated at 20 °C in HBS. Incubations were terminated by removal of the medium, addition of ice-cold trichloroacetic acid (5%, 1 mL) and rapid freezing. This protocol ensured that only intracellular [^3H]-cAMP was detected. [^3H]-adenine nucleotides were separated by column chromatography, and the activity was determined by liquid scintillation counting using Ultra-gold scintillant. Results are presented as [^3H]-cAMP activity as a percentage of the sum of the activities of the fractions containing [^3H]-cAMP, [^3H]-ATP, [^3H]-ADP and [^3H]-AMP; henceforth, reported as [^3H]-cAMP (%).
# [2] = system: carbachol-evoked Ca^2+ signals in hBASMCs; test: Carbachol-evoked Ca2+ signals in populations of fluo-4-loaded hBASMCs; settings: cells treated with PTX 100 ng·mL^−1, 24 h; HBS
# Protocol: (§1) Two methods were used to measure [Ca^2+]i in populations of hBASMCs. For measurements using a FlexStation III plate-reader (Molecular Devices, Sunnyvale, CA, USA), hBASMCs were seeded into 96-well plates (10^4 cells per well). After about 4 days, when the cells were confluent, the medium was replaced with SMGM-2 without serum or growth factor supplements, and the cells were used after a further 24 h. […] Cells were washed with HEPES-buffered saline (HBS: 135 mM NaCl, 5.9 mM KCl, 1.2 mM MgCl2, 1.5 mM CaCl2, 11.6 mM HEPES, 11.5 mM D-glucose, pH 7.3), and loaded with fluo-4 by incubation with fluo-4-AM (2 μM) in HBS (100 μL per well) containing pluronic F127 (0.02%, v/v) and probenecid (2.5 mM). After 1 h at 20 °C, the medium was replaced with HBS (100 μL per well) containing probenecid (2.5 mM). After a further incubation at 20 °C for 1 h, the medium was replaced with HBS (60–80 μL per well) or nominally Ca^2+-free HBS, and the cells were used immediately for experiments at 20 °C. […] Drug additions (20 μL at 4 or 5 times the final concentration) were added automatically. Fluorescence from fluo-4 (excitation 485 nm, emission 525 nm) was recorded at 1.44-s intervals using Softmax Pro 5.4 (Molecular Devices). Fluorescence was calibrated to [Ca^2+]i from: [Ca^2+]i=KDCa×(F−Fmin/Fmax−F) where, KDCa is the equilibrium dissociation constant of fluo-4 for Ca^2+ (345 nM), F is the recorded fluorescence, and Fmin and Fmax are the fluorescence values recorded after addition of triton-X-100 (0.1%, v/v) with either BAPTA (10 mM, Fmin) or CaCl2 (10 mM, Fmax). […] Fmax was determined for each well at the end of an experiment, and the average value was used for each column of 8 wells. Fmin was determined from parallel wells on each plate.
# (§2) For measurements of [Ca^2+]i using an FDSS 7000 FLIPR (Hamamatsu), hBASMCs were seeded into 384-well plates (8000 cells per well) in 20 μL of SMGM-2 containing 5% serum. […] The exact composition of this ‘no-wash’ indicator kit is not disclosed by the manufacturer, but it contains fluo-4-AM and components that reduce background fluorescence. […]
# [3] = system: bradykinin-evoked Ca^2+ signals in hBASMCs; test: Bradykinin-evoked Ca2+ signals in populations of fluo-4-loaded hBASMCs; settings: cells treated with PTX 100 ng·mL^−1, 24 h; HBS
# Protocol: as §1, §2
smiles,measurement,setting,value
"CC(C)NC[C@H](O)c1ccc(O)c(O)c1 [isoproterenol, (−)-isoproterenol hydrochloride]",stimulated cAMP concentration after 30 min relative to after 1 min,[1],2.8 fold
same,effect on the Ca2+ signals evoked by carbachol after pertussis toxin,[2],remained insensitive to isoproterenol
same,effect on the Ca2+ signals evoked by bradykinin after pertussis toxin,[3],remained insensitive to isoproterenol
